From patent publication US9849130B2 (KamTek, Inc., priority 2014, dated 2017)
Converted amounts (≈) assume the structure as drawn. Read-outs that look alike come from different tables or passages of the source.

Tests used:
[1] = system: Clostridium difficile (CD) strains; assay: microbe, parasite or virus in culture; format: cell-based; details: Clostridioides difficile; for MIC: BAA1805, CD strain BAA1805 (hyper-virulent strain BI/NAP1/027)
[2] = system: C. perfringens MH310; assay: microbe, parasite or virus in culture; format: cell-based; details: Clostridium perfringens, MH310, C. perfringens MH310
[3] = system: C. difficile; assay: Minimum bactericidal concentration (MBC) against C. difficile; format: cell-based, Clostridium difficile; details: Clostridioides difficile, CD strain VPI 10463; BHI; Table 19 formulations; read-out: MBC
[4] = system: CD strains; assay: In vitro activity of CFM + additional antimicrobial agent against CD (MIC alone/combination, FIC, ΣFIC); format: cell-based, Clostridium difficile; details: CFM + MET; for MIC: Clostridioides difficile, read-out: MIC alone
[5] = system: Escherichia coli strains; assay: MIC by microdilution in Mueller-Hinton broth against Escherichia coli strains; format: cell-based; details: Escherichia coli, Mueller-Hinton broth, read-out: MIC
[6] = system: Staphylococcus aureus strains; assay: MIC by microdilution in Mueller-Hinton broth against Staphylococcus aureus strains; format: cell-based; details: Staphylococcus aureus
[7] = system: Bacteroides Strains; assay: MIC by microdilution in Brucella broth against Bacteroides strains; format: cell-based, Bacteroides spp.
[8] = system: Fusobacterium; assay: MIC by microdilution in Brucella broth against Fusobacterium; format: cell-based, Fusobacterium spp.; details: read-out: MIC
[9] = system: Bifidobacterium strains; assay: MIC by microdilution in BHI broth against Bifidobacterium strains; format: cell-based, Bifidobacterium spp.; details: BHI broth, read-out: MIC
[10] = system: Lactobacillus strains; assay: MIC against Lactobacillus strains; format: cell-based, Lactobacillus spp.; details: for MIC: broth microdilution, BHI with 0.02% Tween 80, pH 6.0, read-out: MIC
[11] = system: Lachnospiraceae and related bacterial strains; assay: MIC against Lachnospiraceae and related bacterial strains; format: cell-based, Lachnospiraceae spp.; details: for MIC: broth microdilution, brucella broth, read-out: MIC
[12] = system: C. difficile VPI10463; details: Clostridioides difficile, −fecal extract, C. difficile VPI10463
[13] = Test 14, CD strain BAA1805 (BI/NAP1/027)

Question: Which results are given for `Cc1ncc([N+](=O)[O-])n1CCO` [MET, metronidazole]?
Answer: MIC ([1]; BB): 8 µg/mL (≈ 46.7 µM); MIC ([1]; BHI): 1 µg/mL (≈ 5.84 µM); MIC50 ([1]; n = 37, read-out: MIC50): 1 µg/mL (≈ 5.84 µM); MIC90 ([1]; n = 37, read-out: MIC90): 4 µg/mL (≈ 23.4 µM); MIC ([2]; BB): 2 µg/mL (≈ 11.7 µM); MIC ([2]; BHI): 1 µg/mL (≈ 5.84 µM); MBC [3]: 0.25 µg/mL (≈ 1.46 µM); MIC ([4]; BAA1805, Test 14, CD strain BAA1805 (BI/NAP1/027)): 16 µg/mL; MIC ([4]; BAA1805, Test 15, CD strain BAA1805 (BI/NAP1/027)): 32 µg/mL; MIC ([4]; BAA1805, Test 17, CD strain BAA1805 (BI/NAP1/027)): 32 µg/mL; MIC ([4]; Test 8, CD strain NR32885): 2 µg/mL; MIC ([4]; Test 10, CD strain NR32885): 1 µg/mL; MIC ([4]; Test 12, CD strain NR32885): 1 µg/mL; MIC ([4]; Test 19, CD strain NR32888): 2 µg/mL; MIC ([4]; Test 21, CD strain NR32888): 2 µg/mL; FIC ([4]; Test 3, CD strain VPI 10463): 0.5; MIC combination ([4]; Test 3, CD strain VPI 10463): 0.062 µg/mL; FIC ([4]; Test 4, CD strain VPI 10463): 0.5; MIC combination ([4]; Test 4, CD strain VPI 10463): 0.062 µg/mL; MIC combination ([4]; Test 8, CD strain NR32885): 0.25 µg/mL; FIC ([4]; Test 10, CD strain NR32885): 0.25; MIC combination ([4]; Test 10, CD strain NR32885): 0.25 µg/mL; FIC ([4]; Test 12, CD strain NR32885): 0.25; MIC combination ([4]; Test 12, CD strain NR32885): 0.25 µg/mL; FIC [4, 13]: 0.015; MIC combination [4, 13]: 0.25 µg/mL; MIC combination ([4]; Test 15, CD strain BAA1805 (BI/NAP1/027)): 4 µg/mL; MIC combination ([4]; Test 17, CD strain BAA1805 (BI/NAP1/027)): 4 µg/mL; FIC ([4]; Test 19, CD strain NR32888): 0.062; FIC ([4]; Test 21, CD strain NR32888): 0.25; MIC combination ([4]; Test 21, CD strain NR32888): 0.5 µg/mL; MIC ([5]; Escherichia coli strain NR 6): > 32 µg/mL; MIC ([5]; Escherichia coli strain NR 8): > 32 µg/mL; MIC ([5]; Escherichia coli strain NR 96): > 32 µg/mL; MIC ([5]; Escherichia coli strain NR 104): > 32 µg/mL; MIC ([5]; Escherichia coli strain NR 17626): > 32 µg/mL; MIC ([5]; Escherichia coli strain NR 17627): > 32 µg/mL; MIC ([5]; Escherichia coli strain NR 17633): > 32 µg/mL; MIC ([5]; Escherichia coli strain NR 17647): > 32 µg/mL; MIC ([5]; Escherichia coli strain NR 17650): > 32 µg/mL; MIC ([5]; Escherichia coli strain NR 17661): > 32 µg/mL; MIC ([6]; Staphylococcus aureus strain NR 10129, read-out: MIC): > 32 µg/mL; MIC ([6]; Staphylococcus aureus strain NR 10186, read-out: MIC): > 32 µg/mL; MIC ([6]; Staphylococcus aureus strain NR 10187, read-out: MIC): > 32 µg/mL; MIC ([6]; Staphylococcus aureus strain NR 10188, read-out: MIC): > 32 µg/mL; MIC ([6]; Staphylococcus aureus strain NR 10189, read-out: MIC): > 32 µg/mL; MIC ([6]; Staphylococcus aureus strain NR 10191, read-out: MIC): > 32 µg/mL; MIC ([6]; Staphylococcus aureus strain NR 10192, read-out: MIC): > 32 µg/mL; MIC ([6]; Staphylococcus aureus strain NR 10193, read-out: MIC): > 32 µg/mL; MIC ([6]; Staphylococcus aureus strain NR 10194, read-out: MIC): > 32 µg/mL; MIC ([6]; Staphylococcus aureus strain NR 10198, read-out: MIC): > 32 µg/mL; MIC ([7]; B. caccae HM728, read-out: MIC): 0.25 µg/mL (≈ 1.46 µM); MIC ([7]; B. eggerthii HM210, read-out: MIC): 0.5 µg/mL (≈ 2.92 µM); MIC ([7]; B. fragilis HM709, read-out: MIC): 1 µg/mL (≈ 5.84 µM); MIC ([7]; B. fragilis HM710, read-out: MIC): 0.5 µg/mL (≈ 2.92 µM); MIC ([7]; B. fragilis HM714, read-out: MIC): 1 µg/mL (≈ 5.84 µM); MIC ([7]; B. ovatus HM222, read-out: MIC): 0.5 µg/mL (≈ 2.92 µM); MIC ([7]; B. stercoris HM1036, read-out: MIC): 0.25 µg/mL (≈ 1.46 µM); MIC ([7]; Bacteroides, B. spp. HM18): 4 µg/mL (≈ 23.4 µM); MIC ([7]; Bacteroides, B. spp. HM19): 1 µg/mL (≈ 5.84 µM); MIC ([7]; Bacteroides, B. spp. HM22): 0.5 µg/mL (≈ 2.92 µM); MIC ([7]; Bacteroides, B. spp. HM23, read-out: MIC): 0.25 µg/mL (≈ 1.46 µM); MIC ([7]; Bacteroides, B. spp. HM27): 0.5 µg/mL (≈ 2.92 µM); MIC ([7]; Bacteroides, B. spp. HM28): 2 µg/mL (≈ 11.7 µM); MIC ([7]; Bacteroides, B. spp. HM58): 2 µg/mL (≈ 11.7 µM); MIC ([8]; F. nucleatum HM-75, Brucella broth): 0.062 µg/mL (≈ 0.362 µM); MIC ([8]; F. nucleatum HM-993, Brucella broth): ≤ 0.031 µg/mL; MIC ([8]; F. nucleatum HM-996, Brucella broth): 0.5 µg/mL (≈ 2.92 µM); MIC ([8]; F. nucleatum HM-997, Brucella broth): 0.25 µg/mL (≈ 1.46 µM); MIC ([8]; Fusobacterium, Fusobacterium sp. HM 57, Brucella broth): 0.5 µg/mL (≈ 2.92 µM); MIC ([8]; Fusobacterium, Fusobacterium spp. strains of Table 12 (all strains)): 0.031 to 0.5 µg/mL (≈ 0.181 to 2.92 µM); MIC ([9]; Bifidobacterium adolescentis HM-633): > 32 µg/mL; MIC ([9]; Bifidobacterium breve HM-411): > 32 µg/mL; MIC ([9]; Bifidobacterium breve HM-412): > 32 µg/mL; MIC ([9]; Bifidobacterium breve HM-856): > 32 µg/mL; MIC ([9]; Bifidobacterium breve HM-1120): 0.5 µg/mL (≈ 2.92 µM); MIC ([9]; Bifidobacterium longum HM-845): 2 µg/mL (≈ 11.7 µM); MIC ([9]; Bifidobacterium longum HM-846): 2 µg/mL (≈ 11.7 µM); MIC ([9]; Bifidobacterium longum HM-847): 1 µg/mL (≈ 5.84 µM); MIC ([9]; Bifidobacterium, Bifidobacterium sp. HM-30): > 32 µg/mL; MIC ([9]; Bifidobacterium, Bifidobacterium sp. HM-868): 16 µg/mL (≈ 93.5 µM); MIC ([10]; Lactobacillus, pH 6, Lactobacillus jhonsonii HM-643): > 32 µg/mL; MIC ([10]; Lactobacillus, pH 6, Lactobacillus sp. HM-228): > 32 µg/mL; MIC ([10]; Lactobacillus, pH 6, Lactobacillus sp. HM-478): > 32 µg/mL; MIC ([10]; pH 6, Lactobacillus crispatus HM-637): > 32 µg/mL; MIC ([10]; pH 6, Lactobacillus gasseri HM-104): > 32 µg/mL; MIC ([10]; pH 6, Lactobacillus iners HM-126): > 32 µg/mL; MIC ([10]; pH 6, Lactobacillus jensenii HM-105): > 32 µg/mL; MIC ([10]; pH 6, Lactobacillus reuteri HM-102): > 32 µg/mL; MIC ([10]; pH 6, Lactobacillus rhamnosus HM-106): > 32 µg/mL; MIC ([10]; pH 6, Lactobacillus vaginalis HM-405): > 32 µg/mL; in vitro activity against Lactobacillus spp. (in words) ([10]; ten strains tested): essentially inactive; MIC ([11]; Clostridiales bacterium, Clostridiales bacterium HM-84): 0.25 µg/mL (≈ 1.46 µM); MIC ([11]; Clostridiales bacterium, Clostridiales bacterium HM-182): ≤ 0.031 µg/mL; MIC ([11]; Eubacterium sp. HM-178): 1 µg/mL (≈ 5.84 µM); MIC ([11]; Lachnospiraceae sp. HM-7): 0.25 µg/mL (≈ 1.46 µM); MIC ([11]; Lachnospiraceae sp. HM-150): 0.25 µg/mL (≈ 1.46 µM); MIC ([11]; Lachnospiraceae sp. HM-153): 0.062 µg/mL (≈ 0.362 µM); MIC ([11]; Lachnospiraceae sp. HM-157): 0.25 µg/mL (≈ 1.46 µM); MIC ([11]; Lachnospiraceae sp. HM-480): 0.5 µg/mL (≈ 2.92 µM); MIC ([11]; Lachnospiraceae sp. HM-558): 0.5 µg/mL (≈ 2.92 µM); MIC ([11]; Lachnospiraceae sp. HM-768): 0.5 µg/mL (≈ 2.92 µM); MIC ([11]; Lachnospiraceae sp. HM-868): 16 µg/mL (≈ 93.5 µM); MIC ([11]; Peptostreptococcaceae sp. HM-766): 0.5 µg/mL (≈ 2.92 µM); susceptibility of Lachnospiraceae and related organisms (in words) ([11]; most of the members of this family): susceptible; MIC ([12]; VPI10463, Expt. 1): 0.062 µg/mL (≈ 0.362 µM); MIC ([12]; VPI10463, Expt. 2): 0.062 µg/mL (≈ 0.362 µM)
